# The supplement of paper PMC10290057
# How the values were obtained:
# HCT116 [1] = experiment: AC50 cell viability (CellTiter-Glo); higher = less potent; settings: 48 h
# HCT116 [2] = experiment: efficacy (fitted maximal change in viability relative to DMSO control); higher = less cytotoxic (negative = loss of viability); settings: 48 h
# 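Throughout, for AC50 cell viability (CellTiter-Glo): HCT116 colorectal carcinoma cells screened at five concentrations per compound, luminescent viability scaled between DMSO wells and empty wells on each plate, curves fitted per compound.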
# 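Throughout, for efficacy (fitted maximal change in viability relative to DMSO control): Luminescence-based viability readout, five doses per compound, normalized against on-plate DMSO and empty-well controls, followed by dose-response curve fitting for every drug.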
SMILES,AC50 cell viability (HCT116 [1]),efficacy (HCT116 [2])
CC1(C)OC/2=C(\[C@H](NCC3=CC=CC=C3)[C@@H]1O)C(=O)C4=CC=CC=C4C2=O,2.95 µM,-96.8%
Cc1cc(-c2nc3cc(F)ccc3s2)ccc1NC(=O)[C@@H](N)CCCCN,7.42 µM,-93.6%
Cc1ccc2nc(NCCN)c3ncc(C)n3c2c1,2.35 µM,-78.2%
Cc1n[nH]c2ccc(-c3cncc(OC[C@@H](N)Cc4ccccc4)c3)cc12,0.59 µM,-69.5%
CCc1ccc(N(CC(C)C)[S+](=O)([O-])c2ccc(OCC3CCOCC3)c(CO)c2)cc1,23.5 µM,-83.5%
CN1CCN([C@H]2CC[C@H](n3cc(-c4ccc(Oc5ccccc5)cc4)c4c(N)ncnc43)CC2)CC1,7.42 µM,-110%
COC1=CC(=C2C(=O)N(COC/3=C/C(=O)N4\C=C/C=C(OCCN5CCCCC5)\C4=N3)[S+]([O-])(=O)C2=C1)C(C)C,20.9 µM,-84.2%
COc1cc(Nc2cnc(C#N)c(O[C@H](C)CN(C)C)n2)ncc1-c1cnn(C)c1,11.8 µM,-121%
C[C@@H](Oc1ccc2[nH]nc(/C=C/c3cnn(CCO)c3)c2c1)c1c(Cl)cncc1Cl,0.661 µM,-79.4%
NC(CSC(c1ccccc1)(c1ccccc1)c1ccccc1)C(=O)O (stereo in doubt) [S-Trityl-L-cysteine],23.5 µM,-53.6%
Nc1nc(F)nc2c1ncn2[C@@H]1O[C@H](CO)[C@@H](O)[C@@H]1O [2-Fluoroadenosine],9.34 µM,-57.1%
COc1cc2c(cc1O)CC[C@@H]1[C@@H]2CC[C@]2(C)[C@@H](O)CC[C@@H]12 [2-Methoxyestradiol (2-MeOE2)],2.35 µM,-63.9%
NC1=NC=CC2=C1N=C[N]2[C@@H]3\C=C(CO)/[C@@H](O)[C@H]3O [3-Deazaneplanocin A],0.59 µM,-55.4%
Cn1cc(-c2ccc([S+](=O)([O-])n3ccc(/C=C/C(=O)Nc4ccccc4N)c3)cc2)cn1 [4SC-202],1.48 µM,-76.5%
NC/1=N/C(=O)N(/C=N1)[C@@H]2O[C@H](CO)[C@@H](O)[C@H]2O [5-Azacitidine],5.9 µM,-82.6%
CC(=O)O/N=C1/C(=C2\C(=O)Nc3cc(Br)ccc32)Nc2ccccc21 [6-Bromoindirubin-3'-acetoxime],10.5 µM,-92.3%
S=C1N\C=N/C2=C1[NH]C=N2 [6-mercaptopurine],1.66 µM,-101%
CN[C@@H]1C[C@H]2O[C@@](C)([C@@H]1OC)n1c3ccccc3c3c4c(c5c6ccccc6n2c5c31)C(=O)N[C@H]4O [7-Hydroxystaurosporine],0.241 µM,-92.5%
CC[C@@]1(O)C(=O)OCC/2=C1/C=C3\N(CC4=CC5=CC(=CC=C5N=C34)O)C2=O [10-hydroxycamptothecin],0.105 µM,-79.9%
"CCCCC(C)(C)[C@H](O)/C=C/[C@H]1[C@H](O)CC(=O)[C@@H]1C/C=C\CCCC(=O)O [16,16-dimethyl PGE2]",20.9 µM,-64.7%

SMILES,AC50 cell viability (HCT116 [1]),efficacy (HCT116 [2])
C=CCNC1=C2CC(C)CC(OC)C(O)C(C)/C=C(\C)C(OC(N)=O)C(OC)/C=C/C=C(\C)C(=O)NC(=CC1=O)C2=O (stereo unspecified) [17-AAG (KOS953)],0.417 µM,-60.5%
COC[C@H]1OC(=O)C2=COC3=C2[C@@]1(C)\C4=C(\[C@@H]5CC[C@H](O)[C@@]5(C)C[C@H]4OC(C)=O)C3=O [17-hydroxy Wortmannin],20.9 µM,-59.9%
COC[C@H]1OC(=O)C2=COC3=C2[C@@]1(C)\C4=C(C5CCC(=O)[C@@]5(C)C[C@H]4OC(C)=O)/C3=O (stereo partly specified) [17_-hydroxy Wortmannin],0.468 µM,-43.9%
CC1=CC=C2\N=C/3N(CC[C@@]3(O)C(=O)C2=C1)C4=CC=CC=C4 [(-)-Blebbistatin],0.132 µM,-35.7%
Cc1cc2c(C(C)C)c(O)c(O)c(C=O)c2c(O)c1-c1c(C)cc2c(C(C)C)c(O)c(O)c(C=O)c2c1O [(-)-Gossypol],16.6 µM,-115%
Cc1nc(NC(=O)N2CCC[C@H]2C(N)=O)sc1-c1csc(C(C)(C)C)n1 [A-66],1.86 µM,-33%
Nc1ncnc2nc(-c3ccc(N4CCOCC4)nc3)cc(-c3cccc(Br)c3)c12 [ABT-702],20.9 µM,-53%
CN(C)CC[C@H](CSc1ccccc1)Nc1ccc([S+](=O)([O-])NC(=O)c2ccc(N3CCN(Cc4ccccc4-c4ccc(Cl)cc4)CC3)cc2)cc1[N+](=O)[O-] [ABT-737],20.9 µM,-68.4%
Cc1c(NC(=O)OC[C@@H]2COCCN2)cn2ncnc(Nc3ccc4c(cnn4Cc4cccc(F)c4)c3)c12 [AC-480],20.9 µM,-82.6%
CC(=O)NC(C)c1ccc(Oc2ccc(OC(C)C)cc2)cc1 (stereo unspecified) [ACC1 BMS],17.1 µM,-47.8%
Cc1ccc(Nc2nnc(Cc3ccncc3)c3ccccc23)cc1Br [ACC-789],20.9 µM,-84.8%
O=C(CCCCCCNC(=O)c1cnc(N(c2ccccc2)c2ccccc2Cl)nc1)NO [ACY-241],5.9 µM,-86.2%
O=C(NO)c1cnc(NC2(c3ccccc3)CC2)nc1 [ACY-738],3.32 µM,-79.1%
O=C(NO)c1cnc(NC2(c3cccc(F)c3)CCCCC2)nc1 [ACY-775],16.6 µM,-75.6%
O=C(CCCCCCNC(=O)c1cnc(N(c2ccccc2)c2ccccc2)nc1)NO [ACY-1215],7.42 µM,-93.5%
Nc1ncnc2c1c(-c1cccc(OCc3ccccc3)c1)cn2[C@H]1C[C@H](CN2CCCC2)C1 [ADW-742],16.6 µM,-84.3%
CCN1CCN(Cc2ccc(-c3cc4c(N[C@H](C)c5ccccc5)ncnc4[nH]3)cc2)CC1 [AEE-788],16.6 µM,-97.5%
CCOC(CN1C(=O)[C@](CC(=O)Nc2ccc(C)cc2)(NC(=O)Nc2ccc(C)cc2)c2ccccc21)OCC [AG-041R],23.5 µM,-78.5%
CC(C)(C)c1cc(C=C(C#N)C#N)cc(Br)c1O [AG-1024],26.3 µM,-86.1%
COc1cc2ncnc(Nc3cccc(Cl)c3)c2cc1OC [AG-1478],23.5 µM,-91.8%

SMILES,AC50 cell viability (HCT116 [1]),efficacy (HCT116 [2])
O=C(Nc1cccc(C(F)(F)F)c1)Nc1cc([S+](=O)([O-])NC2CC2)ccc1-c1ccsc1 [AGI-6780],26.3 µM,-99.4%
O=C(O)c1ccc2cc(-c3ccc(O)c(C45CC6CC(CC(C6)C4)C5)c3)ccc2c1 [AHPN],2.95 µM,-88.2%
c1ccc(-c2oc3ncnc(NC[C@@H]4CCCO4)c3c2-c2ccccc2)cc1 [AIM-100],9.34 µM,-69.3%
O=c1[nH]c2ccccc2n1C1CCN(Cc2ccc(-c3nc4cc5nc[nH]c5cc4nc3-c3ccccc3)cc2)CC1 [AKT Inhibitor VIII],16.6 µM,-84.5%
CCN1CCN(Cc2ccc(NC(=O)c3ccc(C)c(NC(=O)c4cncc(-c5cccs5)c4)c3)cc2C(F)(F)F)CC1 [ALW-II-41-27],1.86 µM,-111%
CN(CCO)C1CCN(c2ccc(Nc3ncc4c5ccnc(F)c5n(C5CCCC5)c4n3)nc2)CC1 [AM-5992],1.02 µM,-50%
COC1=CC=C2C(=CC=NC2=C1)OC3=CC=C(NC(=O)\C4=C(C)\N(CC(C)(C)O)N(C4=O)C5=CC=CC=C5)C=C3F [AMG-1],11.8 µM,-67.9%
CC\1=C(C(=O)N(\C=C1)C2=CC=C(C=C2)C3=NC=CO3)/C4=CC5=CN=C(N)N=C5C=C4 [AMG-25],1.66 µM,-47.6%
Cc1ccc(C(=O)Nc2cccc(C(F)(F)F)c2)cc1-c1ccc2nc(NCCN3CCOCC3)ncc2c1 [AMG-47a],2.35 µM,-101%
COC1=C(OCCCN2CCOCC2)C=C3N=CC=C(OC4=CC=C(C=C4F)\C5=C\N=C(\NC6=CC=C(F)C=C6)N(C)C5=O)C3=C1 [AMG-51],16.6 µM,-136%
CC(C)[C@@H](C[S+](=O)([O-])C(C)C)N1C(=O)[C@@](C)(CC(=O)O)C[C@H](c2cccc(Cl)c2)[C@H]1c1ccc(Cl)cc1 [AMG-232],1.48 µM,-84.7%
COC1=CC2=NC=CC(=C2C=C1)OC3=CN=C(NC(=O)C/4=C(C)/N(CC(C)(C)O)N(C4=O)C5=CC=CC=C5)C=C3 [AMG-458],16.6 µM,-71.6%
COc1ncc(Nc2ncc([C@H](C)N3CCN([S+](C)(=O)[O-])CC3)cc2-c2nc(C)nc(N)n2)cc1F [AMG-511],5.9 µM,-80.5%
CN\1C(=O)/C(=C(\N=C1NC[C@@H](N)CC2=CC=CC=C2)C3=CC=NC=C3)C4=CC5=C(C=CC=C5)C=C4 [AMG-548],20.9 µM,-101%
CC#C[C@@H](CC(=O)O)c1ccc(OCc2cccc(-c3ccc(C(F)(F)F)cc3)c2)cc1 [AMG-837],20.9 µM,-40.8%
Cc1csc(-c2nnc(Nc3ccc(Oc4ncccc4-c4ccnc(N)n4)cc3)c3ccccc23)c1 [AMG-900],16.6 µM,-52.9%
CNc1nccc(-c2cccnc2Oc2cc(C(=O)Nc3cccc(C(F)(F)F)c3)ccc2C)n1 [AMG-Tie2-1],1.66 µM,-78.8%
Cc1[nH]c2ccc(F)cc2c1-c1nc2c3cccnc3c3ncccc3c2[nH]1 [APTO-253],0.679 µM,-77.4%
